The structures appear in SMILES notation.

For this experiment, the system named is BRM-dependent transcription (BRG1 mutant lung cancer cell line A549). The experiment is described as follows: BRM-dependent transcription, MMTV luciferase reporter in BRG1 mutant A549 cells. It counts as cell-based. The note with it: Table 11; for IC50: A549-MMTV luciferase reporter, dexamethasone induced, 6 hours; for Ratio (MDA-MMTV IC50 (μM) divided by A549-MMTV IC50 (μM)): MMTV luciferase reporter cell lines, selectivity BRG1/BRM. The method, boiled down: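 A549 (BRG1-mutant) cells engineered with a BRM-dependent MMTV luciferase reporter; transcription induced with dexamethasone in presence of compound at various concentrations. Luminescence read 6 h after stimulation.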
A general note: In a reporter assay the amount or activity of a reporter protein is the signal.

By IC50 is commonly meant the midpoint of a concentration-inhibition curve. On to `O=C(NCc1cc2nc(-c3ccnc(N4CCC4)n3)ccc2cn1)c1cc(F)c2c(c1)S(=O)(=O)[C@@H](F)CCO2` [Compound 343], for which the “Ratio (MDA-MMTV IC50 (μM) divided by A549-MMTV IC50 (μM))” value was found to be 24.93. The same compound registered an IC50 (Homo sapiens, A549, 6 h) of 11.1 nM.
For `O=C(NCc1cc2nc(-c3cnc(OC(F)F)c(C4CC4)n3)ccc2cn1)c1cc(F)c2c(c1)S(=O)(=O)[C@@H](F)CCO2` [Compound 373], in that order: 23.16 and 14.9 nM.
The corresponding values for `[2H]C([2H])([2H])C([2H])([2H])Oc1ccc(-c2ccc3cnc(CNC(=O)c4cc(F)c5c(c4)S(=O)(=O)[C@@H](F)COC5)cc3n2)nc1C1CC1(F)F` (stereo partly drawn) [Compound 463] are 35.00 and 6.2 nM.
The corresponding values for `COc1nc([C@@](C)(F)C(F)F)ccc1-c1ccc2cnc(CNC(=O)c3cc(F)c4c(c3)S(=O)(=O)[C@@H](F)CCOC4)cc2n1` [Compound 368] are 17.34 and 2.2 nM.
In the case of `COCc1ccc(-c2ccc3cnc(CNC(=O)c4cc(Cl)c5c(c4)S(=O)(=O)[C@@H](F)COC5)cc3n2)nc1C1CC1` [Compound 422], the “Ratio (MDA-MMTV IC50 (μM) divided by A549-MMTV IC50 (μM))” value was found to be 23.20. Also, under “Homo sapiens, A549, 6 h”, 24.4 nM corresponded to half-maximal inhibition (IC50).
In the case of `CCOc1nc(C(C)(F)F)ccc1-c1ccc2cnc(CNC(=O)c3cc(F)c4c(c3)S(=O)(=O)[C@@H](F)COC4)cc2n1` [Compound 471], the IC50 came out at 8.2 nM and the “Ratio (MDA-MMTV IC50 (μM) divided by A549-MMTV IC50 (μM))” value was 25.44.
For `[2H]C([2H])([2H])C([2H])([2H])Oc1nc(C(C)(F)F)ccc1-c1ccc2cnc(CNC(=O)c3cc(Cl)c4c(c3)S(=O)(=O)[C@@H](F)COC4)cc2n1` [Compound 499], the “Ratio (MDA-MMTV IC50 (μM) divided by A549-MMTV IC50 (μM))” value amounted to 24.97. In addition, it took 15 nM to reach half-maximal inhibition (Homo sapiens, A549, 6 h) (IC50).
Consider `CCOc1nc(C(F)F)ccc1-c1ccc2cnc(CNC(=O)c3cc(C(F)F)c4c(c3)S(=O)(=O)[C@@H](F)COC4)cc2n1` [Compound 430], for which the “Ratio (MDA-MMTV IC50 (μM) divided by A549-MMTV IC50 (μM))” value came to 40.24. Besides, where the note is “Homo sapiens, A549, 6 h”, the IC50 was determined as 8.1 nM.
On to `CCOc1nccc2c1OCCN2c1ccc2cnc(CNC(=O)c3cc(Cl)c4c(c3)S(=O)(=O)[C@@H](F)COC4)cc2n1` [Compound 477], for which the “Ratio (MDA-MMTV IC50 (μM) divided by A549-MMTV IC50 (μM))” value was determined as 52.71. This compound also returned an IC50 (Homo sapiens, A549, 6 h) of 7.4 nM.
In the case of `O=C(NCc1cc2nc(-c3ccc(C(F)F)c(C4CC4(F)F)n3)ccc2cn1)c1cc(F)c2c(c1)S(=O)(=O)[C@@H](F)CCO2` (stereo partly drawn) [Compound 399], the “Ratio (MDA-MMTV IC50 (μM) divided by A549-MMTV IC50 (μM))” value came out at 24.67. This compound also displayed an IC50 (Homo sapiens, A549, 6 h) of 12.9 nM.
The corresponding values for `O=C(NCc1cc2nc(-c3cccc(OC(F)(F)Cl)n3)ccc2cn1)c1cc(Cl)c2c(c1)S(=O)(=O)[C@@H](F)CCO2` [Compound 362] are 31.16 and 22.2 nM.
For `O=C(NCc1cc2nc(-c3ccc(OC(F)F)c([C@@H]4CC4(F)F)n3)ccc2cn1)c1cc(Cl)c2c(c1)S(=O)(=O)[C@@H](F)COC2` [Compound 449], in that order: 37.87 and 7.4 nM.
With `COc1nc([C@@H](F)CF)ccc1-c1ccc2cnc(CNC(=O)c3cc(Br)c4c(c3)S(=O)(=O)[C@@H](F)CCO4)cc2n1` [Compound 383], the “Ratio (MDA-MMTV IC50 (μM) divided by A549-MMTV IC50 (μM))” value was found to be 24.64. Further, 21.8 nM corresponded to half-maximal inhibition (Homo sapiens, A549, 6 h) (IC50).
Regarding `[2H]C1([2H])Oc2c(Cl)cc(C(=O)NCc3cc4nc(-c5cccc(OC(F)F)n5)ccc4cn3)cc2S(=O)(=O)[C@@H](F)C1([2H])[2H]` [Compound 418], the “Ratio (MDA-MMTV IC50 (μM) divided by A549-MMTV IC50 (μM))” value was determined as 52.60. In addition, the IC50 (Homo sapiens, A549, 6 h) was determined as 23.9 nM.
The corresponding values for `COCCOc1cnc2c(c1)OCCN2c1ccc2cnc(CNC(=O)c3cc(Br)c4c(c3)S(=O)(=O)[C@@H](F)COC4)cc2n1` [Compound 426] are 25.72 and 10.2 nM.
For `O=C(NCc1cc2nc(-c3ccc([C@H](F)C(F)F)c(C4CC4)n3)ccc2cn1)c1cc(C(F)F)c2c(c1)S(=O)(=O)[C@@H](F)COC2` [Compound 490], in that order: 26.59 and 7.9 nM.
The corresponding values for `[2H]C([2H])([2H])C([2H])([2H])Oc1nc([C@H](C)F)ccc1-c1ccc2cnc(CNC(=O)c3cc(F)c4c(c3)S(=O)(=O)[C@@H](F)CCO4)cc2n1` [Compound 421] are 23.62 and 8 nM.
Take `O=C(NCc1cc2nc(-c3cccc(OC(F)F)n3)ccc2cn1)c1cc(C(F)F)c2c(c1)S(=O)(=O)[C@@H](F)COC2` [Compound 404]: the “Ratio (MDA-MMTV IC50 (μM) divided by A549-MMTV IC50 (μM))” value is reported as 36.02. The compound further had an IC50 (Homo sapiens, A549, 6 h) of 15.6 nM.
The corresponding values for `[2H]C([2H])([2H])Oc1ccc(-c2ccc3cnc(CNC(=O)c4cc(Br)c5c(c4)S(=O)(=O)[C@@H](F)COC5)cc3n2)nc1C1CC1(F)F` (stereo partly drawn) [Compound 480] are 38.09 and 9.4 nM.
For `COCCOc1cnc2c(c1)OCCN2c1ccc2cnc(CNC(=O)c3cc(C(F)F)c4c(c3)S(=O)(=O)[C@@H](F)COC4)cc2n1` [Compound 437], in that order: 35.93 and 5.8 nM.
For `Cc1ccc(-c2ccc3cnc(CNC(=O)c4cc(Cl)c5c(c4)S(=O)(=O)[C@@H](F)CCO5)cc3n2)c(OC(F)F)n1` [Compound 347], in that order: 25.03 and 17.2 nM.
In the case of `O=C(NCc1cc2nc(-c3ccc([C@@H](F)CF)nc3OC(F)F)ccc2cn1)c1cc(F)c2c(c1)S(=O)(=O)[C@@H](F)CCO2` [Compound 391], the “Ratio (MDA-MMTV IC50 (μM) divided by A549-MMTV IC50 (μM))” value turned out to be 24.21. Further, 2.1 nM corresponded to half-maximal inhibition (Homo sapiens, A549, 6 h) (IC50).
For `COc1cccc(-c2ccc3cnc(CNC(=O)c4cc(F)c5c(c4)S(=O)(=O)[C@@H](F)CCO5)cc3n2)n1` [Compound 333], in that order: 31.11 and 15.4 nM.
The corresponding values for `Cc1cc(C(=O)NCc2cc3nc(-c4ccc(OC(F)F)c(C5CC5)n4)ccc3cn2)cc2c1COC[C@H](F)S2(=O)=O` [Compound 413] are 27.54 and 6.2 nM.
For `CCOc1nc([C@@H](F)CF)ccc1-c1ccc2cnc(CNC(=O)c3cc(C(F)F)c4c(c3)S(=O)(=O)[C@@H](F)COC4)cc2n1` [Compound 515], the half-inhibitory concentration (IC50) turned out to be 16.7 nM and the “Ratio (MDA-MMTV IC50 (μM) divided by A549-MMTV IC50 (μM))” value worked out at 23.82.
On to `CCOc1nc([C@H](C)F)ccc1-c1ccc2cnc(CNC(=O)c3cc(F)c4c(c3)S(=O)(=O)[C@@H](F)CCO4)cc2n1` [Compound 375], for which the “Ratio (MDA-MMTV IC50 (μM) divided by A549-MMTV IC50 (μM))” value was 36.69. Where the note is “Homo sapiens, A549, 6 h”, this compound registered an IC50 of 6.5 nM.
As for `CCOc1nc([C@@H](C)F)ccc1-c1ccc2cnc(CNC(=O)c3cc(F)c4c(c3)S(=O)(=O)[C@@H](F)CCO4)cc2n1` [Compound 376], the “Ratio (MDA-MMTV IC50 (μM) divided by A549-MMTV IC50 (μM))” value is 22.09. For the setting “Homo sapiens, A549, 6 h”, this compound displayed an IC50 of 15.3 nM.
For `COc1ccc(-c2ccc3cnc(CNC(=O)c4cc(Br)c5c(c4)S(=O)(=O)[C@@H](F)COC5)cc3n2)nc1C1CC1` [Compound 487], in that order: 53.94 and 13.4 nM.
For `O=C(NCc1cc2nc(-c3ccc([C@H](F)CF)nc3OC(F)F)ccc2cn1)c1cc(F)c2c(c1)S(=O)(=O)[C@@H](F)CCO2` [Compound 392], in that order: 24.22 and 4.7 nM.
For `C[C@@H](CF)c1ccc2c(n1)N(c1ccc3cnc(CNC(=O)c4cc(F)c5c(c4)S(=O)(=O)[C@@H](F)CCO5)cc3n1)CCO2` [Compound 351], the “Ratio (MDA-MMTV IC50 (μM) divided by A549-MMTV IC50 (μM))” value is 25.07. The half-inhibitory concentration (IC50) (Homo sapiens, A549, 6 h) is 20 nM.
On to `C[C@@H]1CCN1c1cnc2c(-c3ccc4cnc(CNC(=O)c5cc(F)c6c(c5)S(=O)(=O)[C@@H](F)COC6)cc4n3)cccc2c1` [Compound 496], for which the IC50 worked out at 1.6 nM and the “Ratio (MDA-MMTV IC50 (μM) divided by A549-MMTV IC50 (μM))” value worked out at 21.18.
As to `[2H]C([2H])([2H])OC([2H])([2H])C([2H])([2H])Oc1cnc2c(c1)OCCN2c1ccc2cnc(CNC(=O)c3cc(C(F)F)c4c(c3)S(=O)(=O)[C@@H](F)COC4)cc2n1` [Compound 500], the “Ratio (MDA-MMTV IC50 (μM) divided by A549-MMTV IC50 (μM))” value is on record as 21.12. The same compound gave an IC50 (Homo sapiens, A549, 6 h) of 7.7 nM.
For `[2H]C([2H])([2H])C([2H])([2H])Oc1ccc(-c2ccc3cnc(CNC(=O)c4cc(C(F)F)c5c(c4)S(=O)(=O)[C@@H](F)COC5)cc3n2)nc1C1CC1(F)F` (stereo partly drawn) [Compound 440], in that order: 53.01 and 16.1 nM.
The corresponding values for `COc1nc([C@@H](F)CF)ccc1-c1ccc2cnc(CNC(=O)c3cc(Br)c4c(c3)S(=O)(=O)[C@@H](F)COC4)cc2n1` [Compound 450] are 35.43 and 15.4 nM.
For `COCCOc1cnc2c(c1)OCCN2c1ccc2cnc(CNC(=O)c3cc(Cl)c4c(c3)S(=O)(=O)[C@@H](F)CCO4)cc2n1` [Compound 414], in that order: 22.34 and 15.1 nM.
As for `Cc1cc(C(=O)NCc2cc3nc(-c4cccc(C5CC5)n4)ccc3cn2)cc2c1OCC[C@H](F)S2(=O)=O` [Compound 339], the “Ratio (MDA-MMTV IC50 (μM) divided by A549-MMTV IC50 (μM))” value is 40.09. The compound further showed an IC50 (Homo sapiens, A549, 6 h) of 19.4 nM.

These data come from patent publication US12139487B2, “Compounds and uses thereof” (Foghorn Therapeutics Inc., priority 2022, dated 2024).
